# Measured values from the supplement of paper PMC10307832.
# Assays:
# Assay in all cases: relative viability (nuclei count vs DMSO), 5 days (fraction); higher = more cells survive
# Lestaurtinib + Foretinib = compound: C[C@]12O[C@H](C[C@]1(O)CO)n1c3ccccc3c3c4c(c5c6ccccc6n2c5c31)CNC4=O [Lestaurtinib] + COc1cc2c(Oc3ccc(NC(=O)C4(C(=O)Nc5ccc(F)cc5)CC4)cc3F)ccnc2cc1OCCCN1CCOCC1 [Foretinib] (partner 0.25 µM)
# Summary of the method: (§1)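 Dosing by pin tool came one day after lung cancer cell lines were seeded in 1536-well plates, using either one drug or a fixed anchor-drug dose plus five library-drug doses (not always all listed) in √10 steps. After 5 days, nuclei were counted on 4× images. Relative viability is treated-well nuclei count divided by vehicle-well nuclei count, and values are medians of duplicate plates.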
# [1] = compound: C[C@]12O[C@H](C[C@]1(O)CO)n1c3ccccc3c3c4c(c5c6ccccc6n2c5c31)CNC4=O [Lestaurtinib] + Nc1nc2[nH]cc(CCc3ccc(C(=O)N[C@@H](CCC(=O)O)C(=O)O)cc3)c2c(=O)[nH]1 [Pemetrexed] (partner 0.2 µM)
# Summary of the method: as §1
# Lestaurtinib + Dasatinib = compound: C[C@]12O[C@H](C[C@]1(O)CO)n1c3ccccc3c3c4c(c5c6ccccc6n2c5c31)CNC4=O [Lestaurtinib] + Cc1nc(Nc2ncc(C(=O)Nc3c(C)cccc3Cl)s2)cc(N2CCN(CCO)CC2)n1 [Dasatinib] (partner 0.075 µM)
# Summary of the method: as §1
# [2] = compound: C[C@]12O[C@H](C[C@]1(O)CO)n1c3ccccc3c3c4c(c5c6ccccc6n2c5c31)CNC4=O [Lestaurtinib] + CC1(C)CCC(c2ccc(Cl)cc2)=C(CN2CCN(c3ccc(C(=O)NS(=O)(=O)c4ccc(N[C@H](CCN5CCOCC5)CSc5ccccc5)c(S(=O)(=O)C(F)(F)F)c4)cc3)CC2)C1 [Navitoclax] (partner 0.5 µM)
# Summary of the method: as §1
Cell Line,relative viability (Lestaurtinib + Foretinib; first compound 0.005 µM),relative viability (Lestaurtinib + Foretinib; first compound 0.01581 µM),relative viability (Lestaurtinib + Foretinib; first compound 0.05 µM),relative viability (Lestaurtinib + Foretinib; first compound 0.1581 µM),relative viability (Lestaurtinib + Foretinib; first compound 0.5 µM),relative viability ([1]; first compound 0.005 µM),relative viability ([1]; first compound 0.01581 µM),relative viability ([1]; first compound 0.05 µM),relative viability ([1]; first compound 0.1581 µM),relative viability ([1]; first compound 0.5 µM),relative viability (Lestaurtinib + Dasatinib; first compound 0.005 µM),relative viability (Lestaurtinib + Dasatinib; first compound 0.01581 µM),relative viability (Lestaurtinib + Dasatinib; first compound 0.05 µM),relative viability (Lestaurtinib + Dasatinib; first compound 0.1581 µM),relative viability (Lestaurtinib + Dasatinib; first compound 0.5 µM),relative viability ([2]; first compound 0.005 µM),relative viability ([2]; first compound 0.01581 µM),relative viability ([2]; first compound 0.05 µM),relative viability ([2]; first compound 0.1581 µM),relative viability ([2]; first compound 0.5 µM)
201T,1.13,1.21,1.17,1.14,0.356,0.34,0.342,0.317,0.279,0.251,0.598,0.546,0.552,0.583,0.4,1.21,1.22,1.29,1.28,1.18
A549,1.09,1.07,0.579,0.301,0.169,,,,,,,,,,,1.28,1.27,0.948,0.615,0.0764
A-427,1.03,1.04,0.668,0.4,0.154,0.865,1.14,0.925,0.503,0.275,0.846,0.771,0.454,0.24,0.116,1.04,0.858,0.914,0.455,0.329
ABC-1,1.04,1.33,0.991,0.962,0.204,,,,,,0.547,0.648,0.482,0.451,0.218,,,,,
BEN,0.728,0.803,0.478,0.559,0.224,0.782,0.841,0.663,0.555,0.358,0.3,0.322,0.265,0.313,0.184,0.0676,0.07,0.0559,0.0652,0.0525
CAL-12T,1.25,1.22,1.03,1.13,0.696,1.13,1.11,1.17,0.834,0.635,0.447,0.413,0.306,0.307,0.153,1.25,1.45,1.08,1.2,0.686
COR-L23,1.03,0.908,0.8,0.825,0.391,0.209,0.214,0.195,0.194,0.202,0.539,0.699,0.296,0.455,0.121,1.14,1.12,,0.62,0.184
COR-L 105,1.29,1.19,1.27,1.18,0.669,1.06,1.19,1.14,0.743,0.631,0.32,0.32,0.245,0.258,0.145,0.803,0.746,0.595,0.643,0.322
Calu-6,0.868,0.979,0.499,0.482,0.207,,,,,,,,,,,1.01,0.797,0.506,0.468,0.106
ChaGo-K-1,0.946,1.04,0.828,0.788,0.373,0.267,0.268,0.261,0.249,0.205,0.654,0.601,0.552,0.547,0.292,1.03,1.59,0.962,0.603,0.497
EBC-1,0.109,0.105,0.114,0.11,0.112,,,,,,,,,,,0.381,0.51,0.343,0.328,0.193
EKVX,0.681,0.752,0.75,0.925,0.656,0.419,,0.276,0.398,0.256,0.477,0.735,0.562,0.576,0.373,1.03,0.889,0.965,0.929,0.45
EMC-BAC-2,0.908,0.737,0.78,0.382,0.29,0.452,0.429,0.488,0.352,0.308,0.291,0.2,0.255,0.25,0.19,1.25,1.22,0.891,0.656,0.346
EPLC-272H,0.542,0.538,0.282,0.325,0.126,0.308,0.349,0.452,0.189,0.0958,0.282,0.301,0.169,0.187,0.125,1.29,0.924,0.6,0.643,0.689
H3255,0.981,0.888,0.898,0.703,0.419,0.578,0.623,0.493,0.563,0.428,0.291,0.428,0.299,0.342,0.323,0.44,0.437,0.327,0.279,0.182
HARA,0.958,0.856,0.838,0.827,0.126,0.265,0.246,0.203,0.171,0.196,0.27,0.3,0.21,0.261,0.238,1.15,1.18,1.21,1.07,0.196
HCC-15,1.11,1.13,0.989,0.744,0.139,0.244,0.227,0.229,0.195,0.138,0.73,0.702,0.485,0.38,0.169,0.786,0.883,0.668,0.653,0.467
HCC-44,,,,,,0.635,0.685,0.491,0.648,0.377,,,,,,0.88,1.06,0.925,1.12,0.62
HCC-78,0.51,0.494,0.524,0.545,0.308,0.9,0.918,0.851,1,0.903,0.341,0.669,0.294,0.25,0.218,0.897,0.906,0.533,0.333,0.211
HCC-366,0.939,0.924,0.994,1.03,0.536,0.158,0.168,0.157,0.163,0.104,0.74,0.659,0.518,0.516,0.185,1.1,1.11,0.977,1.56,0.581

Cell Line,relative viability (Lestaurtinib + Foretinib; first compound 0.005 µM),relative viability (Lestaurtinib + Foretinib; first compound 0.01581 µM),relative viability (Lestaurtinib + Foretinib; first compound 0.05 µM),relative viability (Lestaurtinib + Foretinib; first compound 0.1581 µM),relative viability (Lestaurtinib + Foretinib; first compound 0.5 µM),relative viability ([1]; first compound 0.005 µM),relative viability ([1]; first compound 0.01581 µM),relative viability ([1]; first compound 0.05 µM),relative viability ([1]; first compound 0.1581 µM),relative viability ([1]; first compound 0.5 µM),relative viability (Lestaurtinib + Dasatinib; first compound 0.005 µM),relative viability (Lestaurtinib + Dasatinib; first compound 0.01581 µM),relative viability (Lestaurtinib + Dasatinib; first compound 0.05 µM),relative viability (Lestaurtinib + Dasatinib; first compound 0.1581 µM),relative viability (Lestaurtinib + Dasatinib; first compound 0.5 µM),relative viability ([2]; first compound 0.005 µM),relative viability ([2]; first compound 0.01581 µM),relative viability ([2]; first compound 0.05 µM),relative viability ([2]; first compound 0.1581 µM),relative viability ([2]; first compound 0.5 µM)
HCC-827,1.02,1.02,0.835,0.803,0.202,0.234,0.234,0.26,0.28,0.196,0.428,0.323,0.256,0.318,0.246,1.07,1.01,0.98,0.847,0.604
HOP-62,1.15,1.33,1.08,1.06,0.343,0.269,0.322,0.309,0.339,0.22,0.66,0.721,0.504,0.499,0.241,0.979,1.07,0.657,0.916,0.988
IA-LM,1.37,1.4,1.53,1.22,0.59,,,,,,,,,,,0.887,0.994,0.817,0.85,0.236
LC-2-ad,0.946,0.903,0.817,0.647,0.324,0.258,0.277,0.252,0.258,0.186,0.618,0.831,0.258,0.281,0.256,0.344,0.402,0.201,0.137,0.107
LCLC-97TM1,0.925,1.08,0.556,0.462,0.238,,0.183,0.149,0.146,0.132,0.841,0.853,0.629,0.753,0.191,0.636,0.564,0.246,0.14,0.249
LCLC-103H,0.752,0.848,0.547,0.485,0.261,0.418,0.484,0.469,0.472,0.412,0.474,0.464,0.405,0.325,0.224,,,,,
NCI-H358,0.621,0.436,0.358,0.201,0.108,0.177,0.164,0.174,0.136,0.158,0.15,0.129,0.162,0.105,0.115,,,,,
NCI-H522,,,,,,1.01,1.08,1.01,0.784,0.502,0.798,0.807,0.934,0.821,0.493,,,,,
NCI-H650,1.04,1.17,0.839,0.689,0.584,0.938,1.01,0.557,0.573,0.33,0.405,0.397,0.301,0.315,0.232,,,,,
NCI-H661,1.02,0.935,1.02,0.933,0.421,0.972,1.03,0.836,0.702,0.523,0.99,0.953,0.851,0.81,0.319,,,,,
NCI-H727,1.05,0.991,1.05,0.756,0.33,,,,,,0.402,0.285,0.459,0.542,0.231,0.502,0.478,0.489,0.332,0.185
NCI-H1299,1.07,1.14,0.68,0.832,0.671,,,,,,,,,,,1.02,1.06,0.946,0.845,0.489
NCI-H1563,0.977,0.96,0.978,0.97,0.991,0.71,0.855,0.613,0.797,0.723,0.487,0.447,0.499,0.409,0.362,,,,,
NCI-H1623,0.872,0.812,0.818,0.671,0.695,,,,,,0.493,0.576,0.584,0.513,0.497,,,,,
NCI-H1648,,,,,,,0.806,,1,0.606,,,,,,,,,,
NCI-H1703,0.322,0.305,0.27,0.315,0.252,,,,,,,,,,,1.22,1.09,0.424,0.219,0.11
NCI-H1792,,,,,,0.748,1.15,0.257,0.371,0.31,1.04,1.33,0.65,0.835,0.616,0.322,0.86,0.428,0.23,0.166
NCI-H2342,1.17,1.06,1.08,1.08,0.922,0.74,0.773,0.796,0.858,0.6,0.328,0.314,0.264,0.313,0.259,,,,,
SW 900,0.719,0.891,1.17,0.868,0.793,0.517,0.538,0.487,0.532,0.441,0.739,0.702,0.445,0.57,0.32,,,,,
